What was measured:
Cx43 hemichannels [1] = biological target: T1, Cx43 hemichannels (Homo sapiens, UniProt P17302); experiment: Extracellular ATP release after irradiation, TICAE cells; assay type: cell-based
T1 construct: endogenous in cells; host or cells: TICAE and TIME cells (human endothelial cell lines)
Description: (§1) Hemichannels are an ATP release pathway and we therefore determined extracellular ATP after irradiation. To that purpose, TICAE and TIME cells were seeded in a 96-well plate at a density of 1×10^5 cells/well and 0.3×10^5 cells/well, respectively, in six to eight biological replicates. Three days later, cells reached 100% confluence. At 30 minutes before irradiation, cells were refreshed with 100 μl medium alone or with medium supplemented with 100 μM TAT-Gap19 (Genosphere Biotechnologies, Paris, France) to block the Cx43 hemichannels. For fractionated irradiation, cells were refreshed with 150 μl medium/well. At different time points after irradiation (1, 6 and 72 h), 1:5 ATP assay mix dissolved in ATP mix dilution buffer (Sigma-Aldrich Co. LCC, Diegem, Belgium) was added to each well. Extracellular ATP release was assessed by measuring the luminescence signal received after oxidation of luciferin and ATP to oxyluciferin and AMP using the CLARIOstar® microplate reader (BMG Labtech, Temse, Belgium). Experiments were corrected for baseline ATP signal in medium in the absence or presence of TAT-Gap19.

Cx43 hemichannels [2] = biological target: T1, Cx43 hemichannels; experiment: Extracellular ATP release after irradiation, TIME cells; assay type: cell-based
Description: as §1

TIME cells [3] = experiment: Intracellular ROS, CM-H2DCFDA IncuCyte live cell imaging, TIME cells; assay type: cell-based, human; settings: 100 μM TAT-Gap19, 0.1 Gy, 45 min p.i.
Description: In order to further assess intracellular ROS production, IncuCyte live cell imaging was used to have fast imaging in large number of replicates over multiple time points. TICAE and TIME cells were seeded in 96-well plate in 16 replicates at a density of 10000 cells/well. Three days later, cells reached 100% confluence. At 30 minutes before irradiation, a fresh MesoEndo Cell Growth Medium without phenol red (Sigma-Aldrich Co. LCC, Diegem, Belgium) supplemented with 10 μmol/L of the CM-H2DCFDA dye (Sigma-Aldrich Co. LCC, Diegem, Belgium) was added to the cells, with or without 100 μM TAT-Gap19 (Genosphere Biotechnologies, Paris, France). Fluorescence signals were measured at 45 min, 2 h and 3 h after irradiation (CM-H2DCFDA dye became saturated due to photoactivaton, and leaked outside the cells after this time) using the IncuCyte ZOOM® system (Essen BioScience, Ann Arbor, Mich., USA), 10× objective and FITC filter. […] Images were analysed making use of the software package provided by the manufacturer; we used a training set of images from different doses to define the image processing procedure. The so called Top-Hat background subtraction method was applied by measuring the radius of the fluorescence object (30 μm), and adjust a threshold of 1.5 (above the local background fluorescent intensity level), as described in IncuCyte™ Background Fluorescence Technical Note. […]

TIME cells [4] = experiment: Dextran fluorescein (10 kDa) dye uptake cell death assay, TIME cells; assay type: cell-based, human
Description: Dextran fluorescein, staining late apoptotic and necrotic cells, was used to validate apoptosis in TIME cells after irradiation. Cells were seeded in a 24-well plate at a density of 1.5×10^5 cells/well in 6 biological replicates. Three days later, cells reached 100% confluence. Before X-ray exposure with 30 minutes, cells were refreshed with medium with or without 100 μM TAT-Gap19 (Genosphere Biotechnologies, Paris, France). At 6 h and 72 h after irradiation, cells were washed twice with HMS supplemented with 25 mM HEPES (Sigma-Aldrich Co. LCC, Diegem, Belgium) (HBSS-HEPES). Afterwards, the cells were incubated with 200 μM dextran fluorescein (10 kDa) (Life Technologies, Merelbeke, Belgium), dissolved in HBSS-HEPES. After six minutes, the staining was removed by washing six times with HBSS-HEPES. Finally, the fluorescence was measured using the IncuCyte ZOOM® system (Essen BioScience, Ann Arbor, Mich., USA) by using FITC channel and phase contrast to count the cells using a ×10 objective. The fluorescence signal was normalized to cell count.

TIME cells [5] = experiment: IGFBP-7 and GDF-15 multiplex-based assays, TIME cells; assay type: cell-based, human; settings: 7 d p.i.
Description: TICAE and TIME cells were seeded in a 6-well plate at a density of 2.5×10^5 cells/well in 5 to 6 biological replicates. Two to three days later, cells reached 100% confluence. At 30 minutes before X-ray exposure, cells were refreshed with medium with or without 100 μM TAT-Gap19 (Genosphere Biotechnologies, Paris, France). At 24 h, 48 h, 72 h and 7 d after irradiation, the supernatant was collected. Medium was changed only for the 7 d time point experiment at the fourth day with fresh medium alone or with medium supplemented with 100 μM TAT-Gap19. For the simultaneous detection of multiple cytokines in the supernatants, the Magnetic Luminex® Assay (R&D systems, Minneapolis, […]) was used following manufacturer's instructions. Briefly, supernatants, standards and microparticles were incubated into a 96-well plate which was pre-coated with cytokine-specific antibodies. The immobilized antibodies were able to bind the cytokines of interest after 2 h incubation, then the plate was washed and incubation with a biotinylated antibody cocktail specific to the cytokines of interest was performed for 1 h. A second wash was performed to remove the unbound biotinylated antibodies. Further, a streptavidin-phycoerythrin conjugate was added to each well to bind to the biotinylated antibodies. After a final wash, the microparticles were resuspended in buffer and read using the Luminex® MAGPIX Analyzer (R&D systems, Minneapolis, […]).

RBE4 cells = experiment: Irradiation-induced ATP release, RBE4 cells; assay type: cell-based, rat; settings: broad-beam 1 Gy, 5 min post-irradiation, BAPTA-AM 10 μM, NALC 1 mM, c-PTIO 100 μM
Description: ATP was measured using a luciferin-luciferase assay kit (Sigma-Aldrich) in combination with a luminometer plate reader (Victor3 1420 multi label counter; Perkin Elmer, Zaventem, Belgium).
Extracellular ATP measurements were initially carried out at different time-points post-irradiation, the effect of blockers on ATP release was tested at the 5 min post-irradiation time-point (time of maximum ATP release).

[6] = 100 μM TAT-Gap19, fractionated irradiation 0.1 and 5 Gy, 72 h p.i.

T1 sequence (P17302 whole entry): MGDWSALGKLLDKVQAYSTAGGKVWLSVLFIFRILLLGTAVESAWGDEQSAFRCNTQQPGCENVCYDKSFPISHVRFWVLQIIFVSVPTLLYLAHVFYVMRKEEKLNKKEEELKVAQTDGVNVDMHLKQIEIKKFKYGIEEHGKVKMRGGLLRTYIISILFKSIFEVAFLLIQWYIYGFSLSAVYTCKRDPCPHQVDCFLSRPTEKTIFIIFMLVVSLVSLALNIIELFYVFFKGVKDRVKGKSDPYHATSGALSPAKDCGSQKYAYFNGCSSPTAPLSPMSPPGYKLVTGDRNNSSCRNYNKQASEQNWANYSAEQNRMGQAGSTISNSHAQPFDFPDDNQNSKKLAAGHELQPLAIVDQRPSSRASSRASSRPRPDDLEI

Substance: TAT-Gap19: connexin mimetic peptide, amino-acids 128-136 of the CL of Cx43 (SEQ ID NO: 2), Gap19 linked to TAT sequence; Cx43 hemichannel inhibitor (YGRKKRRQRRRKQIEIKKFK)
- radiation-induced ATP release (Cx43 hemichannels [1]; [6]): significantly inhibited the 5 Gy responses only
- radiation-induced ATP release (Cx43 hemichannels [1]; 100 μM TAT-Gap19, single 0.1 and 5 Gy, 1 h p.i.): no inhibition was observed
- radiation-induced ATP release (Cx43 hemichannels [1]; 100 μM TAT-Gap19, single 5 Gy, all cases except 1 h p.i. (6 h, 72 h)): significantly reduced the ATP release
- radiation-induced ATP release (Cx43 hemichannels [2]; [6]): significantly inhibited the 5 Gy responses only
- radiation-induced ATP release (Cx43 hemichannels [2]; 100 μM TAT-Gap19, single 0.1 Gy, 1 h p.i.): no inhibition was observed
- radiation-induced ATP release (Cx43 hemichannels [2]; 100 μM TAT-Gap19, single 0.1 and 5 Gy, 1, 6, 72 h p.i., most cases): significantly inhibited the radiation-induced ATP release
- ROS production (IncuCyte) (TIME cells [3]): reduced ROS production only significantly for the 0.1 Gy dose
- dextran fluorescein staining (radiation-induced increase) (TIME cells [4]; 100 μM TAT-Gap19, 5 Gy at 6 h p.i., 5 and 0.1 Gy at 72 h p.i., including control response): inhibited
- dextran fluorescein staining (TIME cells [4]; 100 μM TAT-Gap19, control and 0.1 Gy, 6 h p.i.): small increase
- GDF-15 (TIME cells [5]; 100 μM TAT-Gap19, 0, 0.1 and 5 Gy): significantly inhibited these responses in all treated conditions
- IGFBP-7 control readout (TIME cells [5]; 100 μM TAT-Gap19, 0 Gy control): increased
- IGFBP-7 (TIME cells [5]; 100 μM TAT-Gap19, 0.1 Gy): acted in a significantly inhibitory way
- IGFBP-7 (radiation-induced increase) (TIME cells [5]; 100 μM TAT-Gap19, 5 Gy): not inhibited
- irradiation-induced ATP release (RBE4 cells): inhibited

— patent US20200384072A1, “THERAPY OF IONIZING RADIATION-INDUCED DISORDERS” (SCK-CEN, priority 2019, published 2020)
